From article PMC5218480 (PLoS ONE, 2017)

System: MV-4-11 cells
Assay: Gene expression microarray analysis (Affymetrix PrimeView) and GSEA
Assay type: cell-based, human
Design: RFU PODN (11730768_x_at) / Fold change /veh PODN (11730768_x_at) / RFU LINC00158 (11744669_a_at) / Fold change /veh LINC00158 (11744669_a_at) / RFU DUSP10 (11751237_a_at) / Fold change /veh DUSP10 (11751237_a_at) / RFU ID3 (11757404_x_at) / Fold change /veh ID3 (11757404_x_at) / RFU PLEKHG5 (11737974_s_at) / Fold change /veh PLEKHG5 (11737974_s_at) / RFU LRRC4B (11730491_at) / Fold change /veh LRRC4B (11730491_at) / RFU GIMAP4 (11747438_a_at) / Fold change /veh GIMAP4 (11747438_a_at) / RFU KRT8 (11758183_x_at) / Fold change /veh KRT8 (11758183_x_at) / RFU CNN1 (11734310_a_at) / Fold change /veh CNN1 (11734310_a_at) / RFU VPS37D (11726825_at) / Fold change /veh VPS37D (11726825_at) / RFU C10orf10 (11716522_x_at) / Fold change /veh C10orf10 (11716522_x_at) / RFU KIR2DL2 /// KIR2DL4 /// KIR2DL5A /// KIR2DL5B /// KIR2DS1 /// KIR2DS2 /// KIR2DS3 /// KIR2DS4 /// KIR3DL3 /// KIR3DL3 /// KIR3DS1 (11738374_at) / Fold change /veh KIR2DL2 /// KIR2DL4 /// KIR2DL5A /// KIR2DL5B /// KIR2DS1 /// KIR2DS2 /// KIR2DS3 /// KIR2DS4 /// KIR3DL3 /// KIR3DL3 /// KIR3DS1 (11738374_at) / RFU C1QL1 (11718748_at) / Fold change /veh C1QL1 (11718748_at) / RFU TMPRSS4 (11747572_a_at) / Fold change /veh TMPRSS4 (11747572_a_at) / RFU HAMP (11756126_x_at) / Fold change /veh HAMP (11756126_x_at) / RFU RNFT2 (11725882_a_at) / Fold change /veh RNFT2 (11725882_a_at) / RFU NR4A2 (11747474_a_at) / Fold change /veh NR4A2 (11747474_a_at) / RFU ABCC12 (11746883_a_at) / Fold change /veh ABCC12 (11746883_a_at) / RFU TMEM136 (11760407_x_at) / Fold change /veh TMEM136 (11760407_x_at) / RFU CLDN22 /// WWC2 (11732394_at) / Fold change /veh CLDN22 /// WWC2 (11732394_at) / RFU HLA-DPB1 (11760878_x_at) / Fold change /veh HLA-DPB1 (11760878_x_at) / RFU SPINT1 (11716480_a_at) / Fold change /veh SPINT1 (11716480_a_at) / RFU GAP43 (11754022_s_at) / Fold change /veh GAP43 (11754022_s_at) / RFU A4GNT (11735810_at) / Fold change /veh A4GNT (11735810_at) / RFU PRB3 (11715151_x_at) / Fold change /veh PRB3 (11715151_x_at) / RFU TUBB4B (11761932_at) / Fold change /veh TUBB4B (11761932_at) / RFU CAPN14 (11732068_a_at) / Fold change /veh CAPN14 (11732068_a_at) / RFU TMCC2 (11721928_a_at) / Fold change /veh TMCC2 (11721928_a_at) / RFU IRGQ (11745062_a_at) / Fold change /veh IRGQ (11745062_a_at) / RFU FAM174B (11720279_a_at) / Fold change /veh FAM174B (11720279_a_at) / RFU TMPRSS4 (11748680_a_at) / Fold change /veh TMPRSS4 (11748680_a_at) / RFU FAM212B (11763350_a_at) / Fold change /veh FAM212B (11763350_a_at) / RFU PLEKHG5 (11743358_a_at) / Fold change /veh PLEKHG5 (11743358_a_at) / RFU ZSCAN30 (11745921_a_at) / Fold change /veh ZSCAN30 (11745921_a_at) / RFU CMKLR1 (11741424_a_at) / Fold change /veh CMKLR1 (11741424_a_at) / RFU LOC101060620 /// MAPK8IP1 (11723275_at) / Fold change /veh LOC101060620 /// MAPK8IP1 (11723275_at) / RFU SPTSSB (11747773_x_at) / Fold change /veh SPTSSB (11747773_x_at) / RFU PRSS12 (11739890_at) / Fold change /veh PRSS12 (11739890_at) / RFU BIN1 (11741810_x_at) / Fold change /veh BIN1 (11741810_x_at) / RFU WNT11 (11732464_a_at) / Fold change /veh WNT11 (11732464_a_at) / RFU C10orf10 (11716521_a_at) / Fold change /veh C10orf10 (11716521_a_at) / RFU C5orf56 (11738089_at) / Fold change /veh C5orf56 (11738089_at) / RFU CYB561 (11721691_x_at) / Fold change /veh CYB561 (11721691_x_at) / RFU ANKRD19P (11752326_a_at) / Fold change /veh ANKRD19P (11752326_a_at) / RFU OR2T12 /// OR2T33 /// OR2T8 (11738714_s_at) / Fold change /veh OR2T12 /// OR2T33 /// OR2T8 (11738714_s_at) / RFU VCAN (11748164_a_at) / Fold change /veh VCAN (11748164_a_at) / RFU JSRP1 (11732532_at) / Fold change /veh JSRP1 (11732532_at) / RFU KRTAP10-11 (11738290_x_at) / Fold change /veh KRTAP10-11 (11738290_x_at) / RFU MYO3A (11730013_a_at) / Fold change /veh MYO3A (11730013_a_at) / RFU EBF3 (11725865_a_at) / Fold change /veh EBF3 (11725865_a_at) / RFU CAMK2N1 (11719241_x_at) / Fold change /veh CAMK2N1 (11719241_x_at) / RFU C5orf56 (11738088_a_at) / Fold change /veh C5orf56 (11738088_a_at) / RFU OLFML3 (11715873_a_at) / Fold change /veh OLFML3 (11715873_a_at) / RFU LOC100653217 /// NTM (11731650_a_at) / Fold change /veh LOC100653217 /// NTM (11731650_a_at) / RFU MAPK11 (11762145_a_at) / Fold change /veh MAPK11 (11762145_a_at) / RFU FIZ1 (11724087_x_at) / Fold change /veh FIZ1 (11724087_x_at) / RFU OASL (11726364_x_at) / Fold change /veh OASL (11726364_x_at) / RFU SOX15 (11748057_x_at) / Fold change /veh SOX15 (11748057_x_at) / RFU CD79A (11719716_a_at) / Fold change /veh CD79A (11719716_a_at) / RFU HIST1H1D (11736915_at) / Fold change /veh HIST1H1D (11736915_at) / RFU CASKIN2 (11723855_a_at) / Fold change /veh CASKIN2 (11723855_a_at) / RFU LOC730098 (11760151_x_at) / Fold change /veh LOC730098 (11760151_x_at) / RFU OR4N2 (11742367_at) / Fold change /veh OR4N2 (11742367_at) / RFU PRRT2 (11749266_a_at) / Fold change /veh PRRT2 (11749266_a_at) / RFU SNX32 (11753110_a_at) / Fold change /veh SNX32 (11753110_a_at) / RFU CDHR5 (11726645_a_at) / Fold change /veh CDHR5 (11726645_a_at) / RFU RCAN1 (11760418_a_at) / Fold change /veh RCAN1 (11760418_a_at) / RFU FAM167A (11723789_a_at) / Fold change /veh FAM167A (11723789_a_at) / RFU FAM26E (11764081_at) / Fold change /veh FAM26E (11764081_at) / RFU ISYNA1 (11749810_s_at) / Fold change /veh ISYNA1 (11749810_s_at) / RFU ACY1 (11761880_at) / Fold change /veh ACY1 (11761880_at) / RFU 11764098_at / Fold change /veh 11764098_at / RFU SAMD14 (11745864_x_at) / Fold change /veh SAMD14 (11745864_x_at) / RFU NPB (11741838_a_at) / Fold change /veh NPB (11741838_a_at) / RFU TMPRSS6 (11731388_a_at) / Fold change /veh TMPRSS6 (11731388_a_at) / RFU KRTAP10-2 (11738614_at) / Fold change /veh KRTAP10-2 (11738614_at) / RFU ARHGAP8 /// PRR5-ARHGAP8 (11727945_x_at) / Fold change /veh ARHGAP8 /// PRR5-ARHGAP8 (11727945_x_at) / RFU KRTAP5-7 /// NADSYN1 (11734609_at) / Fold change /veh KRTAP5-7 /// NADSYN1 (11734609_at) / RFU RASL12 (11751679_a_at) / Fold change /veh RASL12 (11751679_a_at) / RFU CDKN2B (11736163_a_at) / Fold change /veh CDKN2B (11736163_a_at) / RFU PRF1 (11729649_at) / Fold change /veh PRF1 (11729649_at) / RFU, ZNF638 /// ZNF638-IT1 / Fold change vs veh, ZNF638 /// ZNF638-IT1 / RFU, PANK3 / Fold change vs veh, PANK3 / RFU, SH3YL1 / Fold change vs veh, SH3YL1 / RFU, ZEB2 / Fold change vs veh, ZEB2 / RFU, NRIP1 / Fold change vs veh, NRIP1 / RFU, PTTG1IP / Fold change vs veh, PTTG1IP / RFU, CAPN2 / Fold change vs veh, CAPN2 / RFU, MED14 / Fold change vs veh, MED14 / RFU, SNORA58 / Fold change vs veh, SNORA58 / RFU, C1orf63 / Fold change vs veh, C1orf63 / RFU, LRRFIP1 / Fold change vs veh, LRRFIP1 / RFU, NDUFAF7 / Fold change vs veh, NDUFAF7 / RFU, SLC12A2 / Fold change vs veh, SLC12A2 / RFU, IBTK / Fold change vs veh, IBTK / RFU, ESF1 / Fold change vs veh, ESF1 / Fold change vs veh, TMEM50B / RFU, TAOK1 / Fold change vs veh, TAOK1 / RFU, ACBD3 / Fold change vs veh, ACBD3 / RFU, TMA16 / Fold change vs veh, TMA16 / RFU, RWDD3 / Fold change vs veh, RWDD3 / RFU, BCAT1 / Fold change vs veh, BCAT1 / RFU, EDEM3 / Fold change vs veh, EDEM3 / RFU, TMEM33 / Fold change vs veh, TMEM33 / RFU, WDR75 / Fold change vs veh, WDR75 / RFU, AHCTF1 / Fold change vs veh, AHCTF1 / RFU, TFRC / Fold change vs veh, TFRC / RFU, ZDHHC17 / Fold change vs veh, ZDHHC17 / RFU, NOM1 / Fold change vs veh, NOM1 / RFU, ARL8B / Fold change vs veh, ARL8B / RFU, ZBTB11 / Fold change vs veh, ZBTB11 / RFU, TAMM41 / Fold change vs veh, TAMM41 / RFU, KIAA1704 /// LOC100996395 / Fold change vs veh, KIAA1704 /// LOC100996395 / RFU, ING1 / Fold change vs veh, ING1 / RFU, TRMT61B / Fold change vs veh, TRMT61B / RFU, FUBP3 / Fold change vs veh, FUBP3 / RFU, TP53 / Fold change vs veh, TP53 / RFU, TNKS2 / Fold change vs veh, TNKS2 / RFU, ZFP14 / Fold change vs veh, ZFP14 / RFU, ACTR2 / Fold change vs veh, ACTR2 / RFU, PPP3R1 / Fold change vs veh, PPP3R1 / RFU, PIK3R1 / Fold change vs veh, PIK3R1 / RFU, HNRNPA1 / Fold change vs veh, HNRNPA1 / RFU, RNF170 / Fold change vs veh, RNF170 / RFU, ZNF28 / Fold change vs veh, ZNF28 / RFU, RNGTT / Fold change vs veh, RNGTT / RFU, OGT / Fold change vs veh, OGT / RFU, BRD1 / Fold change vs veh, BRD1 / RFU, MARS / Fold change vs veh, MARS / RFU, ZNF655 / Fold change vs veh, ZNF655 / RFU, FAHD1 / Fold change vs veh, FAHD1 / RFU, BDP1 / Fold change vs veh, BDP1 / RFU, LRRCC1 / Fold change vs veh, LRRCC1 / RFU, ARID1A / Fold change vs veh, ARID1A / RFU, ZNF146 / Fold change vs veh, ZNF146 / RFU, ZNF330 / Fold change vs veh, ZNF330 / RFU, GPN3 / Fold change vs veh, GPN3 / RFU, C9orf123 / Fold change vs veh, C9orf123 / RFU, N4BP2L2 / Fold change vs veh, N4BP2L2 / RFU, ARFIP1 / Fold change vs veh, ARFIP1 / RFU, FAM179B / Fold change vs veh, FAM179B / RFU, BCL10 / Fold change vs veh, BCL10 / RFU, UHRF1BP1L / Fold change vs veh, UHRF1BP1L / RFU, BET1 / Fold change vs veh, BET1 / RFU, CNOT2 / Fold change vs veh, CNOT2 / RFU, ZNF268 / Fold change vs veh, ZNF268 / Fold change vs veh, ZNF507 / RFU, DGCR2 / Fold change vs veh, DGCR2 / RFU, WDSUB1 / Fold change vs veh, WDSUB1 / Fold change vs veh, HSP90B1 /// MIR3652 / RFU, ADSS / Fold change vs veh, ADSS / RFU, GK / Fold change vs veh, GK / RFU, ZNF148 / Fold change vs veh, ZNF148 / RFU, TAF9 / Fold change vs veh, TAF9 / RFU, SLC1A5 / Fold change vs veh, SLC1A5 / RFU, SLMO2 / Fold change vs veh, SLMO2 / RFU, ABCC4 / Fold change vs veh, ABCC4 / RFU, LOC101060439 /// RAP1B / Fold change vs veh, LOC101060439 /// RAP1B / RFU, RFX7 / Fold change vs veh, RFX7 / RFU, GTPBP10 / Fold change vs veh, GTPBP10 / RFU, CNEP1R1 / Fold change vs veh, CNEP1R1 / RFU, BIVM-ERCC5 /// ERCC5 / Fold change vs veh, BIVM-ERCC5 /// ERCC5 / RFU, ILF3 / Fold change vs veh, ILF3 / RFU 11762660_at / Fold change /veh 11762660_at / RFU VCAN (11757783_s_at) / Fold change /veh VCAN (11757783_s_at) / RFU DDX43 (11728927_at) / Fold change /veh DDX43 (11728927_at) / RFU KRT8 (11758188_x_at) / Fold change /veh KRT8 (11758188_x_at) / RFU NKD1 (11759106_at) / Fold change /veh NKD1 (11759106_at) / RFU SRD5A1 (11742802_a_at) / Fold change /veh SRD5A1 (11742802_a_at) / RFU TPSAB1 /// TPSB2 (11721975_s_at) / Fold change /veh TPSAB1 /// TPSB2 (11721975_s_at) / RFU GSTM3 (11746129_a_at) / Fold change /veh GSTM3 (11746129_a_at) / RFU IL23R (11737362_x_at) / Fold change /veh IL23R (11737362_x_at) / RFU TMEM51 (11727254_a_at) / Fold change /veh TMEM51 (11727254_a_at) / RFU PIWIL2 (11732686_x_at) / Fold change /veh PIWIL2 (11732686_x_at) / RFU ORM1 (11744905_x_at) / Fold change /veh ORM1 (11744905_x_at) / RFU CCDC152 (11743942_at) / Fold change /veh CCDC152 (11743942_at) / RFU ECM1 (11717891_a_at) / Fold change /veh ECM1 (11717891_a_at) / RFU IL23R (11748794_a_at) / Fold change /veh IL23R (11748794_a_at) / RFU TNFAIP8L3 (11732012_x_at) / Fold change /veh TNFAIP8L3 (11732012_x_at) / RFU MBOAT4 (11741988_at) / Fold change /veh MBOAT4 (11741988_at) / RFU 11764193_at / Fold change /veh 11764193_at / RFU TMEM53 (11763286_at) / Fold change /veh TMEM53 (11763286_at) / RFU MAGEB2 (11727129_at) / Fold change /veh MAGEB2 (11727129_at) / RFU TMEM200A (11744735_a_at) / Fold change /veh TMEM200A (11744735_a_at) / RFU CCDC152 (11751479_a_at) / Fold change /veh CCDC152 (11751479_a_at) / RFU FAM211A (11726209_a_at) / Fold change /veh FAM211A (11726209_a_at) / RFU RGS16 (11746705_a_at) / Fold change /veh RGS16 (11746705_a_at) / RFU VCAN (11755009_s_at) / Fold change /veh VCAN (11755009_s_at) / RFU RHOB (11743442_s_at) / Fold change /veh RHOB (11743442_s_at) / RFU RGS16 (11720943_a_at) / Fold change /veh RGS16 (11720943_a_at) / RFU RGS16 (11720944_at) / Fold change /veh RGS16 (11720944_at) / RFU, VPS4B / Fold change vs veh, VPS4B / RFU, CREB1 / Fold change vs veh, CREB1 / RFU, DNAJC13 / Fold change vs veh, DNAJC13 / RFU, GNAQ / Fold change vs veh, GNAQ / RFU, CDK5R1 / Fold change vs veh, CDK5R1 / RFU, ZRANB3 / Fold change vs veh, ZRANB3 / RFU, CUL4A / Fold change vs veh, CUL4A / RFU, CCNY / Fold change vs veh, CCNY / RFU, UFL1 / Fold change vs veh, UFL1 / RFU, COG3 / Fold change vs veh, COG3 / RFU, DIAPH2 / Fold change vs veh, DIAPH2 / RFU, SKA2 / Fold change vs veh, SKA2 / RFU, AFF3 / Fold change vs veh, AFF3 / RFU, LMF1 / Fold change vs veh, LMF1 / RFU, IPO11 / Fold change vs veh, IPO11 / RFU, DFFB / Fold change vs veh, DFFB / RFU, FOXP1 / Fold change vs veh, FOXP1 / RFU, CARD8 / Fold change vs veh, CARD8 / RFU, STRN3 / Fold change vs veh, STRN3 / RFU, ADK / Fold change vs veh, ADK / RFU, RASSF2 / Fold change vs veh, RASSF2 / RFU, WIPF1 / Fold change vs veh, WIPF1 / RFU, LARP1B / Fold change vs veh, LARP1B / RFU, RASA1 / Fold change vs veh, RASA1 / RFU, RB1 / Fold change vs veh, RB1 / RFU, PPFIA1 / Fold change vs veh, PPFIA1 / RFU, MAT2A / Fold change vs veh, MAT2A / RFU, CCT5 / Fold change vs veh, CCT5 / RFU, WDR92 / Fold change vs veh, WDR92 / RFU, CUX1 / Fold change vs veh, CUX1 / RFU, TTC7A / Fold change vs veh, TTC7A / RFU, TMEM135 / Fold change vs veh, TMEM135 / RFU, DEPTOR / Fold change vs veh, DEPTOR / RFU, CPM / Fold change vs veh, CPM / RFU, DNAJB6 / Fold change vs veh, DNAJB6 / RFU, CACNA2D3 / Fold change vs veh, CACNA2D3 / RFU, DTX4 / Fold change vs veh, DTX4 / RFU, TFCP2 / Fold change vs veh, TFCP2 / RFU, GMCL1 /// GMCL1P1 / Fold change vs veh, GMCL1 /// GMCL1P1 / RFU, AEBP2 / Fold change vs veh, AEBP2 / RFU, SNHG1 /// SNORD22 /// SNORD25 /// SNORD26 /// SNORD27 /// SNORD28 /// SNORD29 /// SNORD31 / Fold change vs veh, SNHG1 /// SNORD22 /// SNORD25 /// SNORD26 /// SNORD27 /// SNORD28 /// SNORD29 /// SNORD31 / Fold change (Aza/veh), C12orf56 (ProbeSet 11735607_a_at) / Fold change (ACY-1035/veh), C12orf56 (ProbeSet 11735607_a_at) / Fold change (Aza/veh), FGFR1OP (ProbeSet 11751329_s_at) / Fold change (ACY-1035/veh), FGFR1OP (ProbeSet 11751329_s_at) / Fold change (Aza/veh), VPS36 (ProbeSet 11739960_a_at) / Fold change (ACY-1035/veh), VPS36 (ProbeSet 11739960_a_at) / RFU SYPL1 (11715823_x_at) / Fold change /veh SYPL1 (11715823_x_at) / RFU IGFBP7 (11715501_s_at) / Fold change /veh IGFBP7 (11715501_s_at) / RFU REEP3 (11722064_at) / Fold change /veh REEP3 (11722064_at) / RFU IGLL1 (11728026_x_at) / Fold change /veh IGLL1 (11728026_x_at): dose or concentration left out as unconfirmed
Conditions: ProbeSet 11723930_at; LIST D

Nc1ncn([C@@H]2O[C@H](CO)[C@@H](O)[C@H]2O)c(=O)n1 [azacitidine]
RFU, CCT5: 106.24 RFU
